Bases are written 5' to 3'; sugars and linkages follow in the same order, as letters with counts (s phosphorothioate, o phosphodiester; PS: all linkages phosphorothioate). C may stand for cytosine or 5-methylcytosine; the collection does not tell. l = locked nucleic acid (LNA); d = 2'-deoxy (DNA)
Biological target: HIF1A
Assay: HeLa, 100 nM transfected, 24 h, mean of 3
Details: ASO

| Sequence | caspase activation (% of PBS control) |
| --- | --- |
| TGGCAAGCATCCTGTA (sugars l4 d8 l4, PS) | 349 |
| GTTACTGCCTTCTTAC (sugars ldldlddddddlldll, PS) | 250 |
| GTTACTGCCTTCTTAC (sugars l4 d8 l1 d2 l1, PS) | 209 |
| TGGCAAGCATCCTGTA (sugars lddddddddddldldl, PS) | 228 |
| GTTACTGCCTTCTTAC (sugars ldlllddddddllldl, PS) | 639 |
| TGGCAAGCATCCTGTA (sugars l1 d10 l1 d2 l2, PS) | 261 |
| TGGCAAGCATCCTGTA (sugars l2 d9 l5, PS) | 368 |
| GTTACTGCCTTCTTAC (sugars ldlllddddddllddl, PS) | 499 |
| GTTACTGCCTTCT (sugars l2 d8 l1 d1 l1, PS) | 98.3 |
| GTTACTGCCTTCT (sugars l1 d9 l3, PS) | 171 |
| TGGCAAGCATCCTGTA (sugars ldddldddddddldll, PS) | 245 |
| CAAGCATCCTGTA (sugars ldldddddddldl, PS) | 136 |
| GGCAAGCATCCTG (sugars l4 d7 l2, PS) | 528 |
| ACTGCCTTCTTAC (sugars l1 d10 l2, PS) | 120 |
| CAAGCATCCTGTA (sugars l2 d9 l2, PS) | 189 |
| TACTGCCTTCTTA (sugars ldldddddddldl, PS) | 237 |
| GTTACTGCCTTCTTAC (sugars ldlddddddddldddl, PS) | 115 |
| GGCAAGCATCCTG (sugars l1 d1 l1 d7 l3, PS) | 721 |
| TGGCAAGCATCCTGTA (sugars ldddlddddddldlll, PS) | 230 |
| TTACTGCCTTCTT (sugars l3 d9 l1, PS) | 128 |
| GGCAAGCATCCTG (sugars l4 d6 l3, PS) | 618 |
| TACTGCCTTCTTA (sugars lddlddddddldl, PS) | 133 |
| GCAAGCATCCTGT (sugars l1 d1 l1 d7 l3, PS) | 239 |
| GGCAAGCATCCTG (sugars l4 d8 l1, PS) | 604 |
| GCAAGCATCCTGT (sugars ldllddddddldl, PS) | 176 |
| TGGCAAGCATCCTGTA (sugars ldlldddddddldldl, PS) | 400 |

| Sequence | caspase activation (% of PBS control) |
| --- | --- |
| GCAAGCATCCTGT (sugars l2 d1 l1 d8 l1, PS) | 314 |
| GTTACTGCCTTCTTAC (sugars l2 d1 l2 d7 l4, PS) | 376 |
| TGGCAAGCATCCTGTA (sugars l4 d7 l1 d3 l1, PS) | 299 |
| GTTACTGCCTTCTTAC (sugars l1 d1 l2 d9 l3, PS) | 141 |
| ACTGCCTTCTTAC (sugars l1 d1 l1 d9 l1, PS) | 188 |
| TGGCAAGCATCCTGTA (sugars ldlllddddddldldl, PS) | 455 |
| GTTACTGCCTTCTTAC (sugars l1 d2 l2 d8 l3, PS) | 248 |
| TGGCAAGCATCCTGTA (sugars llldldddddddlldl, PS) | 367 |
| TGGCAAGCATCCT (sugars l1 d10 l2, PS) | 253 |
| GTTACTGCCTTCTTAC (sugars l4 d8 l2 d1 l1, PS) | 284 |
| TGGCAAGCATCCTGTA (sugars lllldddddddldldl, PS) | 372 |
| TGGCAAGCATCCTGTA (sugars l1 d1 l1 d12 l1, PS) | 180 |
| TTACTGCCTTCTT (sugars l2 d10 l1, PS) | 158 |
| GTTACTGCCTTCTTAC (sugars l3 d8 l5, PS) | 379 |
| GTTACTGCCTTCTTAC (sugars l1 d3 l1 d10 l1, PS) | 130 |
| TGGCAAGCATCCTGTA (sugars l3 d9 l1 d1 l2, PS) | 416 |
| GTTACTGCCTTCTTAC (sugars l3 d10 l3, PS) | 134 |
| TTACTGCCTTCTT (sugars l1 d1 l2 d7 l2, PS) | 165 |
| TGGCAAGCATCCTGTA (sugars lldlldddddddldll, PS) | 454 |
| GTTACTGCCTTCTTAC (sugars llddlddddddddldl, PS) | 222 |
| GTTACTGCCTTCTTAC (sugars lddllddddddldlll, PS) | 237 |
| TGGCAAGCATCCTGTA (sugars lddldddddddllldl, PS) | 394 |
| TTACTGCCTTCTT (sugars l1 d2 l1 d8 l1, PS) | 105 |
| TTACTGCCTTCTT (sugars l4 d6 l3, PS) | 396 |
| CAAGCATCCTGTA (sugars l1 d11 l1, PS) | 100 |
| TGGCAAGCATCCTGTA (sugars l1 d2 l1 d9 l3, PS) | 254 |

| Sequence | caspase activation (% of PBS control) |
| --- | --- |
| GTTACTGCCTTCTTAC (sugars lldldddddddddldl, PS) | 138 |
| GTTACTGCCTTCT (sugars l2 d1 l1 d7 l2, PS) | 134 |
| GTTACTGCCTTCTTAC (sugars l1 d1 l3 d8 l3, PS) | 463 |
| ACTGCCTTCTTAC (sugars l2 d10 l1, PS) | 171 |
| TTACTGCCTTCTT (sugars l2 d8 l3, PS) | 270 |
| TGGCAAGCATCCTGTA (sugars lddllddddddddldl, PS) | 397 |
| TACTGCCTTCTTA (sugars l4 d6 l1 d1 l1, PS) | 508 |
| GTTACTGCCTTCTTAC (sugars l2 d1 l1 d11 l1, PS) | 110 |
| GGCAAGCATCCTG (sugars l3 d7 l3, PS) | 632 |
| TGGCAAGCATCCTGTA (sugars l5 d8 l3, PS) | 360 |
| TGGCAAGCATCCTGTA (sugars l1 d11 l4, PS) | 346 |
| TGGCAAGCATCCTGTA (sugars lldldddddddldldl, PS) | 429 |
| GTTACTGCCTTCTTAC (sugars lddlldddddddldll, PS) | 240 |
| TGGCAAGCATCCTGTA (sugars ldlldddddddlddll, PS) | 306 |
| GTTACTGCCTTCTTAC (sugars l3 d8 l2 d2 l1, PS) | 273 |
| GTTACTGCCTTCT (sugars l3 d7 l3, PS) | 267 |
| GTTACTGCCTTCTTAC (sugars ldddlddddddllldl, PS) | 261 |
| GTTACTGCCTTCTTAC (sugars l2 d9 l5, PS) | 328 |
| GTTACTGCCTTCTTAC (sugars lldldddddddldlll, PS) | 170 |
| TGGCAAGCATCCTGTA (sugars l1 d3 l1 d6 l5, PS) | 396 |
| TGGCAAGCATCCTGTA (sugars l1 d10 l1 d3 l1, PS) | 199 |
| CAAGCATCCTGTA (sugars l2 d8 l3, PS) | 250 |
| GTTACTGCCTTCTTAC (sugars l2 d9 l1 d2 l2, PS) | 120 |
| GTTACTGCCTTCTTAC (sugars l1 d10 l1 d3 l1, PS) | 127 |
| GTTACTGCCTTCTTAC (sugars l4 d7 l1 d2 l2, PS) | 255 |
| GTTACTGCCTTCTTAC (sugars lddldddddddldldl, PS) | 135 |

| Sequence | caspase activation (% of PBS control) |
| --- | --- |
| TGGCAAGCATCCTGTA (sugars lddldddddddddldl, PS) | 200 |
| TGGCAAGCATCCTGTA (sugars l1 d13 l2, PS) | 170 |
| TGGCAAGCATCCTGTA (sugars l1 d10 l1 d1 l3, PS) | 348 |
| GTTACTGCCTTCTTAC (sugars ldddldddddddldll, PS) | 135 |
| TGGCAAGCATCCTGTA (sugars l5 d6 l1 d1 l3, PS) | 443 |
| GTTACTGCCTTCTTAC (sugars l1 d1 l3 d7 l4, PS) | 465 |
| TGGCAAGCATCCTGTA (sugars lldddddddddldldl, PS) | 423 |
| GCAAGCATCCTGT (sugars l1 d9 l3, PS) | 147 |
| TGGCAAGCATCCTGTA (sugars l2 d11 l1 d1 l1, PS) | 369 |
| GTTACTGCCTTCTTAC (sugars lldldddddddlddll, PS) | 161 |
| TGGCAAGCATCCTGTA (sugars llddlddddddlldll, PS) | 446 |
| TGGCAAGCATCCTGTA (sugars l3 d1 l1 d8 l3, PS) | 413 |
| TTACTGCCTTCTT (sugars l2 d9 l2, PS) | 148 |
| GTTACTGCCTTCTTAC (sugars lldllddddddldddl, PS) | 260 |
| ACTGCCTTCTTAC (sugars l2 d1 l1 d8 l1, PS) | 177 |
| ACTGCCTTCTTAC (sugars l3 d7 l1 d1 l1, PS) | 383 |
| TTACTGCCTTCTT (sugars l1 d10 l2, PS) | 102 |
| GGCAAGCATCCTG (sugars l2 d10 l1, PS) | 291 |
| GCAAGCATCCTGT (sugars l3 d8 l2, PS) | 450 |
| ACTGCCTTCTTAC (sugars l1 d1 l1 d7 l3, PS) | 257 |
| TGGCAAGCATCCTGTA (sugars ldlddddddddlddll, PS) | 218 |
| GTTACTGCCTTCTTAC (sugars l2 d11 l1 d1 l1, PS) | 129 |
| GTTACTGCCTTCTTAC (sugars l1 d1 l3 d6 l5, PS) | 616 |

Source: the OligoGym collection
